Tests used:
[1] = target: T1, Human glucocorticoid receptors (Homo sapiens, UniProt P04150); test: Radioligand filter binding assay, displacement of 3[H]-dexamethasone from hGR; settings: read-out: GR Binding (% Inhibition at 1.7 μM)
T1 construct: made in house; host or cells: Sf9 insect cells, recombinant baculovirus (BAC-TO-BAC)
T1 sequence (P04150 1-777): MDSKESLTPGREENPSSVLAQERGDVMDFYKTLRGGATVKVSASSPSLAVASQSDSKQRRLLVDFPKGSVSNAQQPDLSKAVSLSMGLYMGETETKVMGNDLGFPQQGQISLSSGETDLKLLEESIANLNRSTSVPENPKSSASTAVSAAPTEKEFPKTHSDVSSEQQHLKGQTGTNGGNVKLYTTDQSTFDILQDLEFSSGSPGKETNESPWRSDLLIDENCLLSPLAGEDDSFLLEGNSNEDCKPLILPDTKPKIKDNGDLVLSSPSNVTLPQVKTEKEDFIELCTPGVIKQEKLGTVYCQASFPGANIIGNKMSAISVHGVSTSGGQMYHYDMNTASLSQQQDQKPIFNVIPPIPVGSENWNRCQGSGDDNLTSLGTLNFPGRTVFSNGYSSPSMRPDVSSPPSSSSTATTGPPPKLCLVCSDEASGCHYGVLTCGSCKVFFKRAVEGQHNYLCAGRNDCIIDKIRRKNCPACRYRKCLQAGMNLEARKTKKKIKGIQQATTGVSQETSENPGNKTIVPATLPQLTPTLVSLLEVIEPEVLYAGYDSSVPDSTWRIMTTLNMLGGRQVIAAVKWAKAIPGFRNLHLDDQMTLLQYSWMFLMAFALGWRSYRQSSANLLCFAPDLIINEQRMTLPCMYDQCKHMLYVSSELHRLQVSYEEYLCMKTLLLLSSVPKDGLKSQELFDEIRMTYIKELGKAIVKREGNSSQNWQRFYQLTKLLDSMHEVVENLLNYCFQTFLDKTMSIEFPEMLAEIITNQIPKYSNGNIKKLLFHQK
Outline: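 Recombinant hGR extract from baculovirus-infected Sf9 cells (final ~1 nM receptor) incubated with ³H-dexamethasone and test compound dilutions in duplicate, EDTA/phosphate pH 8 buffer with MTG, overnight (15-20 h) at +4° C. Bound label collected on PEI-treated GF/B filters and scintillation-counted; IC50 from four-parameter fit of corrected cpm.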

[2] = target: T2, progesterone receptor (PR) (Homo sapiens, UniProt P06401); test: Radioligand binding assay for progesterone receptor (similar protocol);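 further: radioligand binding measured with cytosol preparations containing the human progesterone receptor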
T2 sequence (P06401 1-933): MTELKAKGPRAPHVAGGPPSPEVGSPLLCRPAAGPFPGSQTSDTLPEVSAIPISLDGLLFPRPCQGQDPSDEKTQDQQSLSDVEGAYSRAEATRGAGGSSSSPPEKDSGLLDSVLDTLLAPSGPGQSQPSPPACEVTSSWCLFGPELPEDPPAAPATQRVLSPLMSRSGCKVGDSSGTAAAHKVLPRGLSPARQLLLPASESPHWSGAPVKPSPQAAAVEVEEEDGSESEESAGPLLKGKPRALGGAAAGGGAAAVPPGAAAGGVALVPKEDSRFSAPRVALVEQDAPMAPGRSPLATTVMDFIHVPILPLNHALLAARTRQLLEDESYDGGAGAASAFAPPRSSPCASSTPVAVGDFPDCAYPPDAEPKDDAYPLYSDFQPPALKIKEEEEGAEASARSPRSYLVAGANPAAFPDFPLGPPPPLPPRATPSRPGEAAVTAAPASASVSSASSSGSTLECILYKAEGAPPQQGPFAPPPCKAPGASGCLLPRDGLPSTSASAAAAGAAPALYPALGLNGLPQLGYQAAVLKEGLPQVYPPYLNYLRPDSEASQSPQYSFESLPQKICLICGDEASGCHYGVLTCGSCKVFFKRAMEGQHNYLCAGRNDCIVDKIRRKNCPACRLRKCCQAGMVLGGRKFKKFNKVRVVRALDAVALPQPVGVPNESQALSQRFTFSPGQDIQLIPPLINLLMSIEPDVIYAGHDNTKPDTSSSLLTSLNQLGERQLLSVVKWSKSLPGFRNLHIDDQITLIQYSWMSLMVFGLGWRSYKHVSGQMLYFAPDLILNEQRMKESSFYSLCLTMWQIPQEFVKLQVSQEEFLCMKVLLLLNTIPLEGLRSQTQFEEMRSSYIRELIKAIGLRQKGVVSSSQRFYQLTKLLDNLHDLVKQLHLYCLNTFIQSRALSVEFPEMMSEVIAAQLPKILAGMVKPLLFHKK
Source text: Methods for Radiolipand Binding Studies with Human Glucocorticoid and Progesterone Receptor Cytosol

[3] = test system: obese diabetic db/db transgenic mice; settings: Friedman et al. 1997; cited from earlier work

| inhibition at 1.7 µM [1] | IC50 [2] | SMILES | reduction of plasma glucose levels [3] |
| --- | --- | --- | --- |
| 91.1% | 660 nM | CCCOc1ccc(CN(Cc2ccc(F)cc2F)c2cccc(NS(C)(=O)=O)c2C)cc1 [Example 43, N-{3-[(2,4-difluorobenzyl)(4-propoxybenzyl)amino]-2-methylphenyl}methanesulfonamide] |  |
| 92.8% | 499 nM | Cc1c(NS(C)(=O)=O)cccc1N(Cc1ccc(OCc2ccco2)cc1)Cc1ccc(F)cc1F [Example 155, N-(3-{(2,4-difluorobenzyl)[4-(2-furylmethoxy)benzyl]amino}-2-methylphenyl)methanesulfonamide] |  |
| 87% | > 10000 nM | CCOC(=O)/C=C/c1c(NS(C)(=O)=O)cccc1N(Cc1ccccc1)Cc1ccccc1 [Example 40, N-[3-(dibenzylamino)-2-((E)-3-ethoxy-3-oxo-1-propenyl)phenyl]methanesulfonamide] |  |
| 88.1% | 600 nM | Cc1c(NS(C)(=O)=O)cccc1N(Cc1ccccc1Br)Cc1ccccc1Br [Example 1, N-{3-[bis(2-bromobenzyl)amino]-2-methylphenyl}methanesulfonamide] |  |
| 94.3% | 551 nM | Cc1c(NS(C)(=O)=O)cccc1N(Cc1ccccc1)Cc1ccc(Oc2ccc(CCC(=O)NCCCO)cc2)cc1 [Example 151, 3-(4-{4-[(benzyl{2-methyl-3-[(methylsulfonyl)amino]phenyl}amino)methyl]phenoxy}phenyl)-N-(3-hydroxypropyl)propanamide] |  |
| 91.7% | 255 nM | Cc1c(NS(C)(=O)=O)cccc1N(Cc1ccccc1)Cc1ccc(Oc2ccc(CCC(=O)NCCCCCCO)cc2)cc1 [Example 153, 3-(4-{4-[(benzyl{2-methyl-3-[(methlsulfonyl)amino]phenyl}amino)methyl]phenoxy}phenyl)-N-(6-hydroxyhexyl)propanamide] |  |
| 96.7% | 1370 nM | Cc1c(NS(C)(=O)=O)cccc1N(Cc1ccccc1)Cc1ccc(Oc2cccc(OCC(=O)NCCCN3CCCC3=O)c2)cc1 [Example 114, 2-(3-{4-[(benzyl{2-methyl-3-[(methylsulfonyl)amino]phenyl}amino)methyl]phenoxy}phenoxy)-N-[3-(2-oxopyrrolidin-1-yl)propyl]acetamide] |  |
| 98.5% | 360 nM | Cc1c(NS(C)(=O)=O)cccc1N(Cc1ccc(Oc2ccc(Cl)c(O)c2)cc1)Cc1ccc(F)cc1F [Example 322, N-(3-((4-(4-chloro-3-hydroxyphenoxy)benzyl)(2,4-difluorobenzyl)amino)-2-methylphenyl)methanesulfonamide] |  |
| 97.4% | 123 nM | Cc1c(NS(C)(=O)=O)cccc1N(Cc1ccc(Oc2cccc(OCCCC(=O)NCCC(=O)O)c2)cc1)Cc1ccc(F)cc1F [Example 324, N-(4-(3-(4-(((2,4-difluorobenzyl)(2-methyl-3-((methylsulfonyl)amino)phenyl)amino)methyl)phenoxy)phenoxy)butanoyl)-beta-alanine] |  |
| 94% | 633 nM | Cc1c(NS(C)(=O)=O)cccc1N(Cc1ccccc1)Cc1ccc(Oc2cccc(CCCO)c2)cc1 [Example 65, N-[3-(benzyl{4-[3-(3-hydroxypropyl)phenoxy]benzyl}amino)-2-methylphenyl]methanesulfonamide] |  |
| 90% | > 10000 nM | Cc1c(NS(C)(=O)=O)cccc1N(Cc1ccc(OCc2ccccc2)cc1)Cc1ccc(F)cc1F [Example 34, N-{3-[[4-(benzyloxy)benzyl](2,4-difluorobenzyl)amino]-2-methylphenyl}methanesulfonamide] |  |
| 95.3% | 773 nM | Cc1c(NS(C)(=O)=O)cccc1N(Cc1ccccc1)Cc1ccc(Oc2cccc(OC(C)C(=O)O)c2)cc1 (stereo not drawn) [Example 111, 2-(3-{4-[(benzyl{2-methyl-3-[(methylsulfonyl)amino]phenyl}amino)methyl]phenoxy}phenoxy)propanoic acid] |  |
| 96.2% | 622 nM | Cc1c(NS(C)(=O)=O)cccc1N(Cc1ccccc1)Cc1ccc(Oc2cccc(OCCNS(C)(=O)=O)c2)cc1 [Example 81, N-[2-(3-{4-[(benzyl{2-methyl-3-[(methylsulfonyl)amino]phenyl}amino)methyl]phenoxy}phenoxy)ethyl]methanesulfonamide] |  |
|  |  | CC#C[C@]1(O)CC[C@H]2[C@@H]3CCC4=CC(=O)CCC4=C3[C@@H](c3ccc(N(C)C)cc3)C[C@@]21C [Mifepristone] | 50% |
